The values below come from US20210253538A1, “AMINOPYRAZINES AND RELATED COMPOUNDS USEFUL AS MITOCHONDRIAL UNCOUPLERS” (VIRGINIA TECH INTELLECTUAL PROPERTIES, INC., priority 2018, published 2021).

The structures appear in SMILES notation.

Assay [1] deals with whole cells (NMuLi, C2C12, and L6 cells, isolated cardiomyocytes, human primary fibroblasts). In words: Oxygen consumption rate (OCR) in whole cells, Seahorse XF-24 Flux Analyzer. In kind it is cell-based. Here is the method:
Biological activities of the compounds synthesized is determined by determining increase in oxygen consumption rate (OCR).
Oxygen consumption rate (OCR) in whole cells is measured in general accordance with the method of Kenwood B M et al. (Mol. Met. (2014) 3: 114-123).
OCR is measured using a Seahorse XF-24 Flux Analyzer (Seahorse Biosciences, North Billerica, Mass.). NMuLi, C2C12, and L6 cells are seeded in a Seahorse 24-well tissue culture plate at a density of 3.5×10^4 cells/well, isolated cardiomyocytes at a density of 4×10^4 cells/well, and human primary fibroblasts at a density of 1.1×10^4 cells/well. The cells are then allowed to adhere for 24 h. Prior to the assay, the media is changed to unbuffered DMEM containing pyruvate and glutamine (Gibco #12800-017, pH=7.4 at 37° C.) and the cells are equilibrated for 30 mins at 37° C. Compounds are injected during the assay and OCR is measured using 2 min measurement periods.
2-3 wells are used per condition and averaged over three plates (n=6-9). Statistical significance is determined by two-way ANOVA with Bonferroni's posttest.

The conditions of assay [2]: patients consuming ~300 mg/d, over several months, without changes in food intake; cited from earlier work.

In the case of `Oc1nc(-c2ccc(C(F)(F)F)cc2)cnc1Nc1ccc(OC(F)(F)F)cc1` [Compound 3-26, 3-((4-(Trifluoromethoxy)Phenyl)Amino)-6-(4-(Trifluoromethyl)Phenyl) Pyrazin-2-Ol], the “increase in oxygen consumption rate (OCR)” value in assay [1] is given as “observable activity”. Take `O=[N+]([O-])c1ccc(O)c([N+](=O)[O-])c1` [DNP, 2,4-dinitrophenol]: the Average weight shed in assay [2] was 1.5 pounds per week.

As to `Oc1nc(C(F)(F)F)cnc1Nc1ccc(OC(F)(F)F)cc1` [Compound 3-19, 3-((4-(Trifluoromethoxy)Phenyl)Amino)-6-(Trifluoromethyl)Pyrazin-2-Ol], the “increase in oxygen consumption rate (OCR)” value in assay [1] is recorded as “observable activity”. On the same count and under the same terms, under `FC(F)(F)Oc1ccc(Nc2ncc(C(F)(F)F)nc2OCc2ccccc2)cc1` [Compound 3-18, 3-(Benzyloxy)-N-(4-(Trifluoromethoxy)Phenyl)-5-(Trifluoromethyl)Pyrazin-2-Amine] stands “observable activity”.
